Drawing on PMC4673972 (Bioinformatics, 2015), this text covers Kd for two compounds.

Assay [1] has as its target Bcl-2 (B-cell lymphoma 2) (Homo sapiens, UniProt P10415). The experiment in a line: intrinsic tryptophan fluorescence quenching. The class given is binding.
For assay [2], the target named is B-cell lymphoma 2 (Bcl-2) (UniProt P10415). The experiment in a line: fluorescence polarisation.
Sequence of B-cell lymphoma 2 (Bcl-2) (P10415 whole entry): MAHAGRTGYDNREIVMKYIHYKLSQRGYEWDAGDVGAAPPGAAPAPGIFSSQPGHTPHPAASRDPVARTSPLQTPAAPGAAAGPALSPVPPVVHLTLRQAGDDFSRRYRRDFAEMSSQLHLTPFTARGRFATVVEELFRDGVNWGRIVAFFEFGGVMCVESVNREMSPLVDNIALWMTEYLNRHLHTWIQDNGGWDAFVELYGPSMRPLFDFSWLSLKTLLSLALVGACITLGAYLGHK

Sequence of Bcl-2 (B-cell lymphoma 2) (P10415 whole entry): as above

As a reminder, the Kd is the constant that tells how readily two partners part at equilibrium. A low value points to a tighter complex. In assay [1], `CC(C)(COP(=O)(O)OP(=O)(O)OC[C@H]1O[C@@H](n2cnc3c(N)ncnc32)[C@H](O)[C@@H]1OP(=O)(O)O)[C@@H](O)C(=O)NCCC(=O)NCCS` [CoA] displayed a Kd of 380 ± 80 µM.

The compound fluorescent-labeled Bax-BH3 peptide displayed a Kd in assay [2] of 0.128 µM. In other words, the sub-micromolar range.
